“Also recorded” adds a separate entry of the source.
What was measured:
ERβ(W335A) [1] = target: T1, ERβ(W335A) (Homo sapiens, UniProt Q92731, W335A); experiment: Competitive binding assay for ERβ(W335A); design: made in house; host or cells: Escherichia coli BL21α (described for the wild-type LBD); details: for shape of competitive binding curve, ERβ(W335A): Fig. 4B
Method: (§1) After successive incubation with 100 μl of 0.4% dextran-coated charcoal (DCC) (Sigma-Aldrich) in PBS (pH 7.4) on ice for 10 min, free radioligands bound to DCC were removed using a vacuum filtration system with a 96-well filtration plate (MultiScreenHTS HV, […], Merck KGaA) for the bound/free separation. The radioactivity of each eluent was measured using a liquid scintillation counter (LS6500; Beckman Coulter) and Clear-sol I (Nacalai Tesque Inc). […] Each compound was dissolved in dimethyl sulfoxide to prepare a 1.0 mM stock solution and further diluted to prepare serial dilutions (10^−12 M to 10^−5 M) in the binding buffer. […] Bound/free separation was performed as described above, and the radioactivity was determined using a MicroBeta microplate counter (PerkinElmer Inc). The IC50 value of each test compound was calculated from the dose–response curves generated via nonlinear regression analysis using Prism software (GraphPad Software Inc).
Target sequence in this assay (Q92731 263-530 W335A): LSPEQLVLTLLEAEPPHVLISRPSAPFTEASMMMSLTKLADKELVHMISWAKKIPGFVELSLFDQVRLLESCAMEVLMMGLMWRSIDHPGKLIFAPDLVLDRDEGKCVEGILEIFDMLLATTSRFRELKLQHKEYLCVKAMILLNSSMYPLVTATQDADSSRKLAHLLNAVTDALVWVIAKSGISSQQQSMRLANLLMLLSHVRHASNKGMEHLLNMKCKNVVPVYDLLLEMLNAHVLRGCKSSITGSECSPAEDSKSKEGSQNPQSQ

ERβ [2] = target: T2, ERβ (Homo sapiens, UniProt Q92731); experiment: Luciferase reporter gene assay in HeLa cells, agonistic activity; format: cell-based; design: expressed in transfected cells; host or cells: HeLa; details: HeLa cells; for ERβ agonist activity (in words): WT ERβ
Method: (§2) HeLa cells were maintained in Eagle's minimum essential medium (Nissui Pharmaceutical Co, Ltd) supplemented with DCC-treated fetal bovine serum (10%, v/v) at 37 °C under 5% CO2. […] After a 24-h incubation, luciferase activity was measured using the ONE-Glo Luciferase Assay System (Promega Co) on an EnSpire multimode plate reader (PerkinElmer, Inc).
Target sequence in this assay (Q92731 whole entry): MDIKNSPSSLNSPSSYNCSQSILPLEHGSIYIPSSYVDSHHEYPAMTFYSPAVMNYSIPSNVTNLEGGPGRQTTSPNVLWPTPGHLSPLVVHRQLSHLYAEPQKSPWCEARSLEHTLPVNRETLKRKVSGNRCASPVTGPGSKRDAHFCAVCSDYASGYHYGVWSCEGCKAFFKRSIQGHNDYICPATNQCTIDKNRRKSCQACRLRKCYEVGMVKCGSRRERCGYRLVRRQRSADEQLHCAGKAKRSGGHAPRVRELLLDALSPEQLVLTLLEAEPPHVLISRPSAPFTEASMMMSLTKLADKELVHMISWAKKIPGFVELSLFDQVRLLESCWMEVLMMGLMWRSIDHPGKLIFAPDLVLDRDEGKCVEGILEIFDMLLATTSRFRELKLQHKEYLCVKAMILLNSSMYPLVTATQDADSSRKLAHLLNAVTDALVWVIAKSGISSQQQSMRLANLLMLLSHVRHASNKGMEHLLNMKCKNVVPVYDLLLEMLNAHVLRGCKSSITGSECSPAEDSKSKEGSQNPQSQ

ERβ [3] = target: T2, ERβ; experiment: Radioligand competitive binding assay with [3H]E2 for ERβ (GST-ERβ-LBD); design: made in house; host or cells: Escherichia coli BL21α
Method: Human ERβ cDNA was obtained from OriGene Technologies. The cDNA of ERβ-LBD was amplified using PCR and subcloned into a pGEX-6p-1 expression vector. The expression of GST-fused ERβ-LBD was induced by 1 mM IPTG in Escherichia coli BL21α at 16 °C for overnight. The resulting crude protein was affinity-purified using Glutathione-Sepharose 4B (Cytiva), followed by gel filtration using a Sephadex G-10 column (Cytiva).
Target sequence in this assay (Q92731 263-530): as the sequence (Q92731 263-530 W335A) above, with A73W counted along it

ERβ [4] = target: T2, ERβ; experiment: Luciferase reporter gene assay in HeLa cells, antagonistic activity against 10 nM E2; format: cell-based; design: expressed in transfected cells; host or cells: HeLa; details: for ERβ antagonist activity (in words): against 10 nM E2-induced ERβ activation, 100 nM, 1 μM, 10 μM
Method: as §2
Target sequence in this assay (Q92731 whole entry): as the sequence (Q92731 whole entry) above

ERβ [5] = target: T2, ERβ; experiment: Competitive binding assay with [3H]4OHT for WT ERβ; design: made in house; host or cells: Escherichia coli BL21α
Method: as §1
Target sequence in this assay (Q92731 263-530): as the sequence (Q92731 263-530 W335A) above, with A73W counted along it

ERβ(W335A) [6] = target: T1, ERβ(W335A); experiment: Luciferase reporter gene assay in HeLa cells, ERβ(W335A); format: cell-based; design: expressed in transfected cells; host or cells: HeLa
Method: HeLa cells were maintained in Eagle's minimum essential medium (Nissui Pharmaceutical Co, Ltd) supplemented with DCC-treated fetal bovine serum (10%, v/v) at 37 °C under 5% CO2. […] After incubation for 24 h, cells were harvested and seeded onto 96-well plates at 5 × 10^4 cells/well, and then treated with a series of the test compounds (10^−12 M to 10^−5 M, final concentration) diluted with 1% bovine serum albumin/PBS (v/v). After a 24-h incubation, luciferase activity was measured using the ONE-Glo Luciferase Assay System (Promega Co) on an EnSpire multimode plate reader (PerkinElmer, Inc).
Target sequence in this assay (Q92731 whole entry W335A, the tested form may be a part): as the sequence (Q92731 whole entry) above, with W335A counted along it

ERα = system: ERα; design: method as in PMID 31289329; details: competitive binding, [3H] 17β-estradiol as radioligand; mean ± SD; read-out: Binding affinity (IC50, nM) ERα; cited from earlier work
[7] = target: T3, GST-fused ligand-binding domain of human estrogen receptor β (amino acids 263–530) (human, UniProt Q92731 263-530); experiment: SPR; Biacore T100; GST-ERβ-LBD incubated with 10 μM BPC for 1 h, captured on anti-GST antibody on a CM5 chip at 25 °C; SRC1 peptide injected with BPC; HBS-EP+ buffer; details: both partners purified
T3 construct: cDNA from OriGene Technologies; Subcloned into pGEX-6p-1; Captured on the chip through an anti-GST antibody; Incubated beforehand with 10 μM E2 or 10 μM BPC (small molecules) in two of the three SPR conditions; also called GST-ERβ-LBD; ERβ-LBD; source: E. coli BL21α, purified (Glutathione-Sepharose 4B, gel filtration on Sephadex G-10)

[8] = target: T3, GST-fused ligand-binding domain of …; experiment: SPR; Biacore T100; GST-ERβ-LBD without E2, captured on anti-GST antibody on a CM5 chip; SRC1 peptide injected; HBS-EP+ buffer; details: both partners purified
[9] = target: T3, GST-fused ligand-binding domain of …; experiment: SPR; Biacore T100; GST-ERβ-LBD incubated with 10 μM E2 for 1 h, captured on anti-GST antibody on a CM5 chip at 25 °C; SRC1 peptide injected with E2; HBS-EP+ buffer (0.01 M Hepes pH 7.4, 0.15 M NaCl, 3 mM EDTA, 0.05% Surfactant P20); details: both partners purified

T3 sequence (Q92731 263-530): as the sequence (Q92731 263-530 W335A) above, with A73W counted along it

With CC(C)(c1ccc(O)cc1)c1ccc(O)cc1 [Compound 19, 4,4'-(propane-2,2-diyl)diphenol] the “shape of competitive binding curve, ERβ(W335A)” value (“shape … ERβ(W335A)” below) (ERβ(W335A) [1]) was “typical sigmoidal competitive dose–response curve”, the “ERβ agonist activity (in words)” value (ERβ [2]; listed as BPA) was “full agonist activity; also recorded: strongest ERβ agonistic activity; also recorded: strong transcriptional activity” and the “affinity for ERβ, times weaker than that of E2” value (ERβ [3]; relative to E2) was 400 times. For the same molecule, the “ERβ antagonist activity (in words)” value (ERβ [4]) was “did not elicit antagonistic activity”, the “shape of competitive binding curve, WT ERβ” value (from here on “shape … WT ERβ”) (ERβ [5]; [3H]4OHT radioligand) was “sigmoidal curve” and the “transcriptional activity on ERβ(W335A) (in words)” value (ERβ(W335A) [6]) was “lost”.

With Oc1ccc(C(=C(Cl)Cl)c2ccc(O)cc2)cc1 [Compound 1, 4,4'-(2,2-dichloroethene-1,1-diyl)diphenol] the IC50 (ERβ(W335A) [1]) was 691 ± 29 nM, the “shape … ERβ(W335A)” value (ERβ(W335A) [1]) was “biphasic binding of BPC and BPAF was lost” and the “maximum fold induction (agonistic activity on ERβ)” value (ERβ [2]; ERE luciferase reporter, tested up to 10 µM) was 2.39. The “ERβ agonist activity (in words)” value (ERβ [2]) was “weak transcriptional activity”, the IC50 (ERα) was 2.81 ± 0.61 nM and the IC50 (ERβ [3]) was 2.99 ± 1 nM. The “transcriptional activity (%) at most effective inhibitory concentration, ratio to that of 10 nM E2” value (ERβ [4]; HeLa cells, in the presence of 10 nM E2, 0.1, 1, 10 µM tested) was 6.0%, the “ERβ antagonist activity (in words)” value (ERβ [4]) was “strongest antagonistic activity” and the IC50 (ERβ [5]) was 18.1 nM. For the same molecule, the “shape … WT ERβ” value (ERβ [5]; [3H]4OHT radioligand) was “biphasic dose–response curve” and the IC50 (ERβ [5]; read-out: IC50, biphasic curve, low-affinity site, [3H]4OHT radioligand, WT ERβ) was 2280 nM.

In the case of Oc1ccc(C(c2ccc(O)cc2)(C(F)(F)F)C(F)(F)F)cc1 [Compound 4, 4,4'-(perfluoropropane-2,2-diyl)diphenol], the “shape … ERβ(W335A)” value (ERβ(W335A) [1]) is reported as “biphasic binding of BPC and BPAF was lost”, the “ERβ agonist activity (in words)” value (ERβ [2]) is reported as “weak transcriptional activity” and the “preference of binding ERβ over ERα” value (ERβ [3]; ERβ versus ERα IC50) is reported as “three times stronger binding to ERβ than ERα”. For the same molecule, the “ERβ antagonist activity (in words)” value (ERβ [4]) was “antagonistic activities”, the “shape … WT ERβ” value (ERβ [5]; [3H]4OHT radioligand) was “biphasic binding curve” and the “increase of ERβ binding compared with BPA” value (ERβ [5]; compared with BPA) was roughly 50 fold.

B1: SRC1 peptide (amino acids 685–697) derived from human nuclear receptor coactivator 1 (peptide)
peptide: ERHKILHRLLQEG
notes: source: synthetic peptide (ABI 433A, solid phase, Fmoc chemistry)
B1 gave a Kd [7] of 16400 nM, a Kd [8] of 9100 nM and a Kd [9] of 3300 nM.

Reference: article PMC8551653, “Bisphenol A derivatives act as novel coactivator-binding inhibitors for estrogen receptor β” (The Journal of Biological Chemistry, 2021)
